Results published in patent US20130196050A1, “SALTY TASTE ENHANCER” (AJINOMOTO CO., INC., priority 2010, published 2013).

Molecular target: T1, Human ENaC δ, β and γ subunit (Homo sapiens, UniProt P51168+P51170+P51172)
T1 construct: expressed in transfected cells; host or cells: Xenopus laevis (African clawed frog) oocytes injected with cRNA
T1 sequence (P51172 1-638 isoform P51172-1): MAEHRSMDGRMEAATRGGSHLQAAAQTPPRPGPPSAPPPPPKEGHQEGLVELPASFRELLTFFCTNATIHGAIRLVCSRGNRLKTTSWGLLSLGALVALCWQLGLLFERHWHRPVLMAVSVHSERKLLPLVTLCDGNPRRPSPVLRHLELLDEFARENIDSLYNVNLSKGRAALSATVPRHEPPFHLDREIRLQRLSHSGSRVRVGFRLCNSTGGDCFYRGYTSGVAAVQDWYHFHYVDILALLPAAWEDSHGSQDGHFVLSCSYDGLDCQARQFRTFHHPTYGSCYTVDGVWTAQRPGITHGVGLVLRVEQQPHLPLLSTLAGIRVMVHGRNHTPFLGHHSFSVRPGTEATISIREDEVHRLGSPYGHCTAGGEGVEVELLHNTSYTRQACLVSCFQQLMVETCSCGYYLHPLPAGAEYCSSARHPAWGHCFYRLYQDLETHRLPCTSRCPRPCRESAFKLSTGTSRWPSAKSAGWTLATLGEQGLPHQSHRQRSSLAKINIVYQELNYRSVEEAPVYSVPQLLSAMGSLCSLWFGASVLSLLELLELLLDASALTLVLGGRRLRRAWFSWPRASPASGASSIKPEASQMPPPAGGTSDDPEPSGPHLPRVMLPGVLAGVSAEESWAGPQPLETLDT
T1 sequence (P51168 1-640): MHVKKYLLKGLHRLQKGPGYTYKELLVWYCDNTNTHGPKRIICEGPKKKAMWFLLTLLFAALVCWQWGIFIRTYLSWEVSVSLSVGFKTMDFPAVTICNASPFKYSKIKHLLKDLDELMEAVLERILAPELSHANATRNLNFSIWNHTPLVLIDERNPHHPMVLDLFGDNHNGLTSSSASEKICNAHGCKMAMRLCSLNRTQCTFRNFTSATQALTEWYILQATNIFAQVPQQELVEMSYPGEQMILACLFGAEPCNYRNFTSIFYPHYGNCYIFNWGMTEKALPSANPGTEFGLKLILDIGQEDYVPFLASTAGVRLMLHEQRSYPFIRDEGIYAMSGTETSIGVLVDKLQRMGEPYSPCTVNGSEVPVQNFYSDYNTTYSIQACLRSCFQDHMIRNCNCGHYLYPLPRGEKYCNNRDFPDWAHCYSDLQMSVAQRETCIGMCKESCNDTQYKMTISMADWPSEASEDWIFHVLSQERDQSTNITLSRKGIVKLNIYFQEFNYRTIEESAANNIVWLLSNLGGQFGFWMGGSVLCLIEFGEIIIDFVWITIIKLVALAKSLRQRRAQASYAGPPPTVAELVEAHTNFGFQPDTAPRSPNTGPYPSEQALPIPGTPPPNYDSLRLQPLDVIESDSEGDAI
T1 sequence (P51170 1-649): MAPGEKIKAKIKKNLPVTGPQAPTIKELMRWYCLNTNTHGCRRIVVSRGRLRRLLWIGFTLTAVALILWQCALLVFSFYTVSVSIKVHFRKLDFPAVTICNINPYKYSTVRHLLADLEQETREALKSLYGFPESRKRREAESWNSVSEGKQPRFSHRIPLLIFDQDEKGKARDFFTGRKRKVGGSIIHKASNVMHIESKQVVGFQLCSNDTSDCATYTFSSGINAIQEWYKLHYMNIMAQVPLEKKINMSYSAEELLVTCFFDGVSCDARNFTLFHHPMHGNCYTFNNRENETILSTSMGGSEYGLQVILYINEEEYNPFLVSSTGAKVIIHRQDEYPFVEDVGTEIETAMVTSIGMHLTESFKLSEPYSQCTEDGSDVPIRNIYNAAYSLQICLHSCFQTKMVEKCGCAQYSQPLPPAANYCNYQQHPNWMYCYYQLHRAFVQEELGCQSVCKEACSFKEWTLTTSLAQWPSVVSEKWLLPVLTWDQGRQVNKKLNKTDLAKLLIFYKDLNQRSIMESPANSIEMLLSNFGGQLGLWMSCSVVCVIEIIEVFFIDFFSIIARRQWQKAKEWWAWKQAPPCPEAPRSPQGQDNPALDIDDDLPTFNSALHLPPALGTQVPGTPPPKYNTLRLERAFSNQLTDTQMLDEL
Assay: Measurement of ENaC activation potency (two electrode voltage clamp current in ENaC-expressing oocyte)
Assay type: cell-based
Outline: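 Xenopus oocytes were injected with human ENaC δ, β and γ cRNA, cultured 16–72 h, and voltage-clamped by two-electrode clamp at −30 mV below resting potential in ND96 (pH 7.6) perfusion. Compounds (0.1 nM–300 μM) were added in rising concentrations at 3-min intervals. MED was the first concentration raising current by ≥10% over pre-addition current.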

concentration from which the ENaC activation current starts to increase (FIG. 3): 0.00001 g/dL
concentration at which the ENaC activation current reaches the maximum current value (FIG. 3, almost constant up to 0.0080 g/dl): 0.0020 g/dL
MED value (minimum effective dose) (lowest concentration increasing the current value by not less than 10% vs before addition): 0.1 to 0.3 µM
SMILES: O=C(NCCc1c[nH]c2ccc(O)cc12)c1c(O)cccc1O [Example 35, 2,6-dihydroxy-N-(2-(5-hydroxy-1H-indol-3-yl)ethyl)benzamide]
